Patent publication US7884136B2, “Modified-release formulations of a bupropion salt” (Biovail Laboratories International S.R.L., priority 2005, dated 2011)

Assay: Shelf life stability program of bupropion HBr, 25° C./60% RH, 3 and 6 months, HPLC
Assay type: physicochemical
Conditions: 25° C., R.H. 60%; for Chromatographic purity B) (HPLC) 4) 2-N-(tert-Butyl)-aminopropiophenone / Chromatographic purity B) (HPLC) 5) single unknown impurity (each): LOQ 0.02%, LOD 0.002%; for Chromatographic purity A) (HPLC) 1) 3′-Chloropropiophenone / Chromatographic purity A) (HPLC) 3) 3′-Chlorobenzoic acid / Chromatographic purity A) (HPLC) 2) 3′-Chloro-2-bromopropiophenone: LOQ 0.05%; for Chromatographic purity A) (HPLC) 1) 3′-Chloropropiophenone / Chromatographic purity A) (HPLC) 3) 3′-Chlorobenzoic acid: LOD 0.01%; for Chromatographic purity A) (HPLC) 2) 3′-Chloro-2-bromopropiophenone: LOD 0.04%
Protocol: The stability of bupropion HBr was studied over a longer term under conditions meant to approximate standard storage or shelf conditions. Samples were prepared in closed containers and subjected to long-term storage at 25° C.+2° C. and 60%+5% RH in a stability chamber. The samples were analyzed by HPLC prior to being placed in the stability chamber (time 0) and after 3 months and 6 months. The amounts of the main degradation products present at time 0 were compared with the amounts present at 3 months and 6 months. As shown in Table 77-79 three different batches of bupropion HBr were tested. As in Example 10 each sample was tested under two HPLC assay conditions to identify 6 impurities or groups of impurities as described in Example 10.

SMILES: Br.CC(NC(C)(C)C)C(=O)c1cccc(Cl)c1 (stereo not drawn) [Bupropion•HBr]
- Assay (HPLC) (Batch D00894, 12 months): 99.6 % on d.b.
- Chromatographic purity (HPLC: A + B) Total impurities (Batch D00894, 12 months): 0.2%
- Chromatographic purity B) (HPLC) 6) total unknown impurities (Batch D00894, 12 months): 6) 0.07%
- Description (white or almost white crystalline powder) (Batch D00894, 12 months): conform
- Identification IR, HPLC (Batch D00894, 12 months): positive
- Water content (K.F.) (Batch D00894, 12 months): 0.05%
- Chromatographic purity B) (HPLC) 4) 2-N-(tert-Butyl)-aminopropiophenone (Batch D00894, 12 months): 4) 0.05%
- Chromatographic purity B) (HPLC) 5) single unknown impurity (each) (Batch D00894, 12 months): 5) 0.05%
- Chromatographic purity A) (HPLC) 1) 3′-Chloropropiophenone (Batch D00894, 12 months): 1) n.d.
- Chromatographic purity A) (HPLC) 3) 3′-Chlorobenzoic acid (Batch D00894, 12 months): 3) 0.05%
- Chromatographic purity A) (HPLC) 2) 3′-Chloro-2-bromopropiophenone (Batch D00894, 12 months): 2) n.d.
- Assay (HPLC) (Batch D00894, time 0): 99.6 % on d.b.
- Chromatographic purity (HPLC: A + B) Total impurities (Batch D00894, time 0): 0.1%
- Chromatographic purity B) (HPLC) 6) total unknown impurities (Batch D00894, time 0): 6) 0.04%
- Description (white or almost white crystalline powder) (Batch D00894, time 0): conform
- Identification IR, HPLC (Batch D00894, time 0): positive
- Water content (K.F.) (Batch D00894, time 0): 0.05%
- Chromatographic purity B) (HPLC) 4) 2-N-(tert-Butyl)-aminopropiophenone (Batch D00894, time 0): 4) 0.04%
- Chromatographic purity B) (HPLC) 5) single unknown impurity (each) (Batch D00894, time 0): 5) 0.04%
- Chromatographic purity A) (HPLC) 1) 3′-Chloropropiophenone (Batch D00894, time 0): 1) n.d.
- Chromatographic purity A) (HPLC) 3) 3′-Chlorobenzoic acid (Batch D00894, time 0): 3) n.q.
- Chromatographic purity A) (HPLC) 2) 3′-Chloro-2-bromopropiophenone (Batch D00894, time 0): 2) n.d.
- Assay (HPLC) (Batch D00895, 3 months): 99.5 % on d.b.
- Chromatographic purity (HPLC: A + B) Total impurities (Batch D00895, 3 months): 0.1%
- Chromatographic purity B) (HPLC) 6) total unknown impurities (Batch D00895, 3 months): 6) 0.05%
- Description (white or almost white crystalline powder) (Batch D00895, 3 months): conform
- Identification IR, HPLC (Batch D00895, 3 months): positive
- Water content (K.F.) (Batch D00895, 3 months): 0.04%
- Chromatographic purity B) (HPLC) 4) 2-N-(tert-Butyl)-aminopropiophenone (Batch D00895, 3 months): 4) 0.03%
- Chromatographic purity B) (HPLC) 5) single unknown impurity (each) (Batch D00895, 3 months): 5) 0.04%
- Chromatographic purity A) (HPLC) 1) 3′-Chloropropiophenone (Batch D00895, 3 months): 1) n.q.
- Chromatographic purity A) (HPLC) 3) 3′-Chlorobenzoic acid (Batch D00895, 3 months): 3) n.q.
- Chromatographic purity A) (HPLC) 2) 3′-Chloro-2-bromopropiophenone (Batch D00895, 3 months): 2) n.d.
- Assay (HPLC) (Batch D00895, 6 months): 100.1 % on d.b.
- Chromatographic purity (HPLC: A + B) Total impurities (Batch D00895, 6 months): 0.1%
- Chromatographic purity B) (HPLC) 6) total unknown impurities (Batch D00895, 6 months): 6) 0.02%
- Description (white or almost white crystalline powder) (Batch D00895, 6 months): conform
- Identification IR, HPLC (Batch D00895, 6 months): positive
- Water content (K.F.) (Batch D00895, 6 months): 0.05%
- Chromatographic purity B) (HPLC) 4) 2-N-(tert-Butyl)-aminopropiophenone (Batch D00895, 6 months): 4) 0.05%
- Chromatographic purity B) (HPLC) 5) single unknown impurity (each) (Batch D00895, 6 months): 5) n.q.
- Chromatographic purity A) (HPLC) 1) 3′-Chloropropiophenone (Batch D00895, 6 months): 1) 0.05%
- Chromatographic purity A) (HPLC) 3) 3′-Chlorobenzoic acid (Batch D00895, 6 months): 3) n.q.
- Chromatographic purity A) (HPLC) 2) 3′-Chloro-2-bromopropiophenone (Batch D00895, 6 months): 2) n.d.
- Assay (HPLC) (Batch D00895, 9 months): 99.4 % on d.b.
- Chromatographic purity (HPLC: A + B) Total impurities (Batch D00895, 9 months): n.q.
- Chromatographic purity B) (HPLC) 6) total unknown impurities (Batch D00895, 9 months): 6) n.q.
- Description (white or almost white crystalline powder) (Batch D00895, 9 months): conform
- Identification IR, HPLC (Batch D00895, 9 months): positive
- Water content (K.F.) (Batch D00895, 9 months): 0.05%
- Chromatographic purity B) (HPLC) 4) 2-N-(tert-Butyl)-aminopropiophenone (Batch D00895, 9 months): 4) n.d.
- Chromatographic purity B) (HPLC) 5) single unknown impurity (each) (Batch D00895, 9 months): 5) n.q.
- Chromatographic purity A) (HPLC) 1) 3′-Chloropropiophenone (Batch D00895, 9 months): 1) n.q.
- Chromatographic purity A) (HPLC) 3) 3′-Chlorobenzoic acid (Batch D00895, 9 months): 3) n.q.
- Chromatographic purity A) (HPLC) 2) 3′-Chloro-2-bromopropiophenone (Batch D00895, 9 months): 2) n.d.
- Assay (HPLC) (Batch D00895, 12 months): 99.4 % on d.b.
- Chromatographic purity (HPLC: A + B) Total impurities (Batch D00895, 12 months): 0.2%
- Chromatographic purity B) (HPLC) 6) total unknown impurities (Batch D00895, 12 months): 6) 0.07%
- Description (white or almost white crystalline powder) (Batch D00895, 12 months): conform
- Identification IR, HPLC (Batch D00895, 12 months): positive
- Water content (K.F.) (Batch D00895, 12 months): 0.04%
- Chromatographic purity B) (HPLC) 4) 2-N-(tert-Butyl)-aminopropiophenone (Batch D00895, 12 months): 4) 0.05%
- Chromatographic purity B) (HPLC) 5) single unknown impurity (each) (Batch D00895, 12 months): 5) 0.07%
- Chromatographic purity A) (HPLC) 1) 3′-Chloropropiophenone (Batch D00895, 12 months): 1) n.d.
- Chromatographic purity A) (HPLC) 3) 3′-Chlorobenzoic acid (Batch D00895, 12 months): 3) 0.05%
- Chromatographic purity A) (HPLC) 2) 3′-Chloro-2-bromopropiophenone (Batch D00895, 12 months): 2) n.d.
